Laboratory results reported in patent EP0075139A1 (priority 1981, dated 1983).

These compounds were tested on Plasmopara viticola (assay: Efficacy against Plasmopara viticola on potted vine leaves (protective spray, greenhouse)). Conditions: 0,025 %ige Spritzbrühe; potted vines "Müller-Thurgau"; infected 10 days after spraying; value given as 'beispielsweise' (for example).
Format: in vivo
Text: Wirksamkeit gegen Plasmopara viticola
Blätter von Topfreben der Sorte "Müller-Thurgau" werden mit wäßriger Spritzbrühe, die 80 % Wirkstoff und 20 % Emulgiermittel in der Trockensubstanz enthält, besprüht. Um die Wirkungsdauer der Wirkstoffe beurteilen zu können, werden die Pflanzen nach dem Antrocknen des Spritzbelages 10 Tage im Gewächshaus aufgestellt. Erst dann werden die Blätter mit einer Zoosporenaufschwemmung von Plasmopara viticola (Rebenperonospora) infiziert. Danach werden die Reben zunächst für 16 Stunden in einer wasserdampfgesättigten Kammer bei 24°C und anschließend für 8 Tage in einem Gewächshaus mit Temperaturen zwischen 20 und 30 C aufgestellt. Nach dieser Zeit werden die Pflanzen zur Beschleunigung des Sporangienträgerausbruchs abermals für 16 Stunden in der feuchten Kammer aufgestellt. Dann erfolgt die Beurteilung des Ausmaßes des Pilzausbruches auf den Blattunterseiten.
Das Ergebnis des Versuches zeigt, daß beispielsweise die Verbindungen Nr. 1, 2, 11 und 12 bei Anwendung als 0,025 %ige Spritzbrühe eine bessere fungizide Wirkung (beispielsweise 100 %) zeigen als der bekannte Wirkstoff A (beispielsweise 90 %).

Point of comparison: `CC(=O)C(=O)N(c1c(C)ccc2ccccc12)C1CCOC1=O` (stereo not drawn) [Verbindung Nr. 1, N-(2-Methyl-1-naphthyl)-N-(alpha-butyro--gamma-lactonyl)-brenztraubensäure-amid], “fungizide Wirkung” value 100%. Against it:
- O=C1c2ccccc2C(=O)N1SC(Cl)(Cl)Cl [Verbindung A, N-Trichlormethylthio-phthalimid] — lower, 90%

What follows are compounds tested on Phytophthora infestans (assay: not given). Conditions: 0,025 %ige Spritzbrühe; potted tomato "Große Fleischtomate"; assessed 5 days after infection; value given as 'beispielsweise' (for example).
Format: in vivo

Point of comparison: `CC(=O)C(=O)N(c1c(C)ccc2ccccc12)C1CCOC1=O` (stereo not drawn) [Verbindung Nr. 1, N-(2-Methyl-1-naphthyl)-N-(alpha-butyro--gamma-lactonyl)-brenztraubensäure-amid], “fungizide Wirkung” value 90%. Against it:
- O=C1C2CC=CCC2C(=O)N1SC(Cl)(Cl)Cl (stereo not drawn) [Verbindung B, N-Trichlormethylthio-tetrahydrophthalimid] — lower, 70%
- S=C([S-])NCCNC(=S)[S-].[Zn+2] [Verbindung C, Zink-ethylen-1,2-bis-dithiocarbamat] — lower, 70%
- COC(=O)C(C)N(C(=O)C(C)=NOCc1c(Cl)cccc1Cl)c1c(C)cccc1C (stereo not drawn) [Verbindung Nr. 22, N-(2,6-Dimethyl-phenyl)-N-[(1-methoxycarbonyl)-1-ethyl]-2-[O-(2,6-dichlor-benzyl)-oximino]-brenztraubensäure-amid] — the same, 90%
